Source: patent US7342011B2, “Rifamycin analogs and uses thereof” (priority 2003, dated 2008)
Values after ≈ are worked out from the molar mass of the structure shown.

Assays:
Type in all cases: cell-based
S. aureus = experiment: MIC assay, S. aureus
E. coli = experiment: MIC assay, E. coli
S. pneumo. = experiment: MIC assay, S. pneumo.
H. flu = experiment: MIC assay, H. flu
E. faecalis = experiment: MIC assay, E. faecalis

Row | SMILES | MIC (μg/mL) S. aureus (S. aureus) [µg/mL] | MIC (μg/mL) E. coli (E. coli) [µg/mL] | MIC (μg/mL) S. pneumo. (S. pneumo.) [µg/mL] | MIC (μg/mL) H. flu (H. flu) [µg/mL] | MIC (μg/mL) E. faecalis (E. faecalis) [µg/mL]
1 | CCOC(=O)NCC1CCN(c2cc(O)c3nc4c5c6c7c(C)c(O)c5c(=O)c(c-4oc3c2)NC(=O)/C(C)=C\C=C\[C@H](C)[C@H](O)[C@@H](C)[C@@H](O)[C@@H](C)[C@H](OC(C)=O)[C@H](C)[C@@H](OC)/C=C/O[C@@](C)(O7)C6=O)CC1 [Compound 51, 3′-hydroxy-5′-[4-ethylcarbamylmethyl-1-piperidinyl]benzoxazinorifamycin] | 0.06 (≈ 0.0609 µM) | 8 (≈ 8.12 µM) | 0.002 (≈ 0.00203 µM) | 0.25 (≈ 0.254 µM) | 8 (≈ 8.12 µM)
2 | CO[C@H]1/C=C/O[C@@]2(C)Oc3c(C)c(O)c4c(=O)c(c5oc6cc(N7CCC(CNC(C)=O)CC7)cc(O)c6nc-5c4c3C2=O)NC(=O)/C(C)=C\C=C\[C@H](C)[C@H](O)[C@@H](C)[C@@H](O)[C@@H](C)[C@H](OC(C)=O)[C@@H]1C [Compound 55, 3′-hydroxy-5′-[4-acetylaminomethyl-1-piperidinyl]benzoxazinorifamycin] | 0.008 (≈ 0.00838 µM) | 8 (≈ 8.38 µM) | 0.00025 (≈ 0.000262 µM) | 0.5 (≈ 0.524 µM) | 1 (≈ 1.05 µM)
3 | CO[C@H]1/C=C/O[C@@]2(C)Oc3c(C)c(O)c4c(=O)c(c5oc6cc(N7CCC(c8ccccc8)CC7)cc(O)c6nc-5c4c3C2=O)NC(=O)/C(C)=C\C=C\[C@H](C)[C@H](O)[C@@H](C)[C@@H](O)[C@@H](C)[C@H](OC(C)=O)[C@@H]1C [Compound 57, 3′-hydroxy-5′-[4-phenyl-1-piperidinyl]benzoxazinorifamycin] | 0.008 (≈ 0.00833 µM) | 8 (≈ 8.33 µM) | 0.0005 (≈ 0.000521 µM) | 0.5 (≈ 0.521 µM) | 2 (≈ 2.08 µM)
4 | CO[C@H]1/C=C/O[C@@]2(C)Oc3c(C)c(O)c4c(=O)c(c5oc6cc(N7C[C@@H]8CCCN(C)[C@@H]8C7)cc(O)c6nc-5c4c3C2=O)NC(=O)/C(C)=C\C=C\[C@H](C)[C@H](O)[C@@H](C)[C@@H](O)[C@@H](C)[C@H](OC(C)=O)[C@@H]1C [Compound 58, 3′-hydroxy-5′-[1-methyl-(4aS,7aS)-octahydro-6H-pyrrolo[3,4-b]pyridin-6-yl]benzoxazinorifamycin] | 0.03 (≈ 0.0319 µM) | >8 | 0.004 (≈ 0.00426 µM) | 0.25 (≈ 0.266 µM) | 1 (≈ 1.06 µM)
5 | CO[C@H]1/C=C/O[C@@]2(C)Oc3c(C)c(O)c4c(=O)c(c5oc6cc(N7C[C@@H]8CCCN(C)[C@@H]8C7)cc(O)c6nc-5c4c3C2=O)NC(=O)/C(C)=C\C=C\[C@H](C)[C@H](O)[C@@H](C)[C@@H](O)[C@@H](C)[C@H](O)[C@@H]1C [Compound 59, 25-O-deacetyl-3′-hydroxy-5′-[1-methyl-(4aS,7aS)-octahydro-6H-pyrrolo[3,4-b]pyridin-6-yl]benzoxazinorifamycin] | 0.004 (≈ 0.00446 µM) | 4 (≈ 4.46 µM) | 0.001 (≈ 0.00111 µM) | 0.12 (≈ 0.134 µM) | 0.06 (≈ 0.0669 µM)
6 | CO[C@H]1/C=C/O[C@@]2(C)Oc3c(C)c(O)c4c(=O)c(c5oc6cc(N7CCC(CCO)CC7)cc(O)c6nc-5c4c3C2=O)NC(=O)/C(C)=C\C=C\[C@H](C)[C@H](O)[C@@H](C)[C@@H](O)[C@@H](C)[C@H](OC(C)=O)[C@@H]1C [Compound 61, 3′-hydroxy-5′-[4-(2-hydroxyethyl)-1-piperidinyl]benzoxazinorifamycin] | 0.004 (≈ 0.00431 µM) | >8 | 0.00012 (≈ 0.000129 µM) | 0.25 (≈ 0.269 µM) | 1 (≈ 1.08 µM)
7 | CO[C@H]1/C=C/O[C@@]2(C)Oc3c(C)c(O)c4c(=O)c(c5sc6cc(N7C[C@@H](C)N[C@@H](C)C7)ccc6nc-5c4c3C2=O)NC(=O)/C(C)=C\C=C\[C@H](C)[C@H](O)[C@@H](C)[C@@H](O)[C@@H](C)[C@H](OC(C)=O)[C@@H]1C [Compound 64, 5′-[(3R,5S)-3,5-dimethyl-1-piperazinyl]benzthiazinorifamycin] | 0.004 (≈ 0.00438 µM) | 4 (≈ 4.38 µM) | 0.00012 (≈ 0.000131 µM) | 0.25 (≈ 0.274 µM) | 0.12 (≈ 0.131 µM)
8 | CO[C@H]1/C=C/O[C@@]2(C)Oc3c(C)c(O)c4c(=O)c(c5oc6cc(N7CCC(CCO)CC7)cc(O)c6nc-5c4c3C2=O)NC(=O)/C(C)=C\C=C\[C@H](C)[C@H](O)[C@@H](C)[C@@H](O)[C@@H](C)[C@H](O)[C@@H]1C [Compound 66, 25-O-deacetyl-3′-hydroxy-5′-[4-(2-hydroxyethyl)-1-piperidinyl]benzoxazinorifamycin] | 0.004 (≈ 0.00451 µM) | 4 (≈ 4.51 µM) | 0.0005 (≈ 0.000564 µM) | 0.12 (≈ 0.135 µM) | 0.12 (≈ 0.135 µM)
9 | CO[C@H]1/C=C/O[C@@]2(C)Oc3c(C)c(O)c4c(=O)c(c5sc6cc(N7C[C@@H](C)N(CC8CC8)C[C@@H]7C)ccc6nc-5c4c3C2=O)NC(=O)/C(C)=C\C=C\[C@H](C)[C@H](O)[C@@H](C)[C@@H](O)[C@@H](C)[C@H](OC(C)=O)[C@@H]1C [Compound 68, 5′-[(2S,5R)-4-(cyclopropylmethyl)-2,5-dimethylpiperazinyl]benzthiazinorifamycin] | 0.06 (≈ 0.062 µM) | >8 | 0.0005 (≈ 0.000517 µM) | 0.5 (≈ 0.517 µM) | 2 (≈ 2.07 µM)
10 | CO[C@H]1/C=C/O[C@@]2(C)Oc3c(C)c(O)c4c(=O)c(c5sc6cc(N7CCC(N(C)C)CC7)ccc6nc-5c4c3C2=O)NC(=O)/C(C)=C\C=C\[C@H](C)[C@H](O)[C@@H](C)[C@@H](O)[C@@H](C)[C@H](OC(C)=O)[C@@H]1C [Compound 69, 5′-[4-N,N-dimethylamino-1-piperidinyl]benzthiazinorifamycin] | 0.015 (≈ 0.0162 µM) | 4 (≈ 4.31 µM) | 0.00025 (≈ 0.00027 µM) | 0.5 (≈ 0.539 µM) | 0.5 (≈ 0.539 µM)
11 | CO[C@H]1/C=C/O[C@@]2(C)Oc3c(C)c(O)c4c(=O)c(c5oc6cc(N7CCC(C)(N(C)C)CC7)cc(O)c6nc-5c4c3C2=O)NC(=O)/C(C)=C\C=C\[C@H](C)[C@H](O)[C@@H](C)[C@@H](O)[C@@H](C)[C@H](OC(C)=O)[C@@H]1C [Compound 71, 3′-hydroxy-5′-[4-methyl-4-N,N-dimethylamino-1-piperidinyl]benzoxazinorifamycin] | 0.008 (≈ 0.0085 µM) | 4 (≈ 4.25 µM) | 0.00012 (≈ 0.000128 µM) | 0.5 (≈ 0.531 µM) | 0.25 (≈ 0.266 µM)
12 | CO[C@H]1/C=C/O[C@@]2(C)Oc3c(C)c(O)c4c(=O)c(c5oc6cc(N7CCC(C)(NC(C)=O)CC7)cc(O)c6nc-5c4c3C2=O)NC(=O)/C(C)=C\C=C\[C@H](C)[C@H](O)[C@@H](C)[C@@H](O)[C@@H](C)[C@H](OC(C)=O)[C@@H]1C [Compound 72, 3′-hydroxy-5′-[4-methyl-4-acetylamino-1-piperidinyl]benzoxazinorifamycin] | 0.008 (≈ 0.00838 µM) | >8 | 0.00025 (≈ 0.000262 µM) | 0.5 (≈ 0.524 µM) | 2 (≈ 2.09 µM)
13 | CO[C@H]1/C=C/O[C@@]2(C)Oc3c(C)c(O)c4c(=O)c(c5oc6cc(N7CCC(C)(N(C)C)CC7)cc(O)c6nc-5c4c3C2=O)NC(=O)/C(C)=C\C=C\[C@H](C)[C@H](O)[C@@H](C)[C@@H](O)[C@@H](C)[C@H](O)[C@@H]1C [Compound 73, 25-O-deacetyl-3′-hydroxy-5′-[4-methyl-4-N,N-dimethylamino-1-piperidinyl]benzoxazinorifamycin] | 0.002 (≈ 0.00222 µM) | 2 (≈ 2.22 µM) | 0.00025 (≈ 0.000278 µM) | 0.12 (≈ 0.133 µM) | 0.03 (≈ 0.0334 µM)
14 | CO[C@H]1/C=C/O[C@@]2(C)Oc3c(C)c(O)c4c(=O)c(c5oc6cc(N7CC[C@@H](N(C)C)C7)cc(O)c6nc-5c4c3C2=O)NC(=O)/C(C)=C\C=C\[C@H](C)[C@H](O)[C@@H](C)[C@@H](O)[C@@H](C)[C@H](OC(C)=O)[C@@H]1C [Compound 75, 3′-hydroxy-5′-[(3R)-N,N-dimethylamino-1-pyrrolidinyl]benzoxazinorifamycin] | 0.002 (≈ 0.00219 µM) | 4 (≈ 4.38 µM) | 0.00012 (≈ 0.000131 µM) | 0.25 (≈ 0.274 µM) | 0.12 (≈ 0.131 µM)
15 | CO[C@H]1/C=C/O[C@@]2(C)Oc3c(C)c(O)c4c(=O)c(c5sc6cc(N7CCN8CCC[C@H]8C7)ccc6nc-5c4c3C2=O)NC(=O)/C(C)=C\C=C\[C@H](C)[C@H](O)[C@@H](C)[C@@H](O)[C@@H](C)[C@H](OC(C)=O)[C@@H]1C [Compound 76, 5′-[(8aS)octahydropyrrolo[1,2-a]pyrazin-2-yl]benzthiazinorifamycin] | 0.008 (≈ 0.00865 µM) | 4 (≈ 4.32 µM) | 0.00025 (≈ 0.00027 µM) | 0.25 (≈ 0.27 µM) | 0.5 (≈ 0.54 µM)
